These are literature values, as cited in patent publication US20240117436A1, “METHODS OF TREATING LIPEDEMA INCLUDING AKR1C2 AS A THERAPEUTIC TARGET” (MAGI EUREGIO SCS, priority 2021, published 2024).

In one series the test system is PGE2 and PGF2α levels. Conditions: literature.
With Sennosides, the “Activity (prostaglandin levels)” value is recorded as “increase PGE2 formation”.

In the next series the target is AKR enzymes. Conditions: mid-nanomolar value; read-out: affinity of cofactor in binding AKR enzymes.
With NADP(H) [NADP(H) (NPD)], the Kd was 100 nM.

The target in another series is T1, AKR1C1 (Homo sapiens, UniProt Q04828).
T1 sequence (Q04828 1-323): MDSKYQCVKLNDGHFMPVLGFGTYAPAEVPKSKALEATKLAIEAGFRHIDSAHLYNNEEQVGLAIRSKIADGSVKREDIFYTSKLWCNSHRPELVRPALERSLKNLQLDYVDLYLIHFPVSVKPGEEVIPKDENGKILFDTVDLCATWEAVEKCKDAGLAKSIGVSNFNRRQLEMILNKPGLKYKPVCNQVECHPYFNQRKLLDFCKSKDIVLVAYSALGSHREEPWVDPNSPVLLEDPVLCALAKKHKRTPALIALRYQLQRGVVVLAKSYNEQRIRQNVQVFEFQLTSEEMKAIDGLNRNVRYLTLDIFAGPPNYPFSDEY
Conditions: not given
As for `O=C1CN=C(c2ccccn2)c2cc(Br)ccc2N1` [Bromazepam], the “Enzyme activity (inhibition/activation)” value was “inhibition”. In the case of `O=C1CN2CCOC2(c2ccccc2Cl)c2cc(Cl)ccc2N1` (centres unmarked) [Cloxazolam], the “Enzyme activity (inhibition/activation)” value is on record as “inhibition”. As to `CN1C(=O)CN=C(c2ccccc2)c2cc(Cl)ccc21` [Diazepam], the “Enzyme activity (inhibition/activation)” value is “inhibition”.

Take `CN1C(=O)CN=C(c2ccccc2F)c2cc([N+](=O)[O-])ccc21` [Flunitrazepam]: the “Enzyme activity (inhibition/activation)” value is “inhibition”. Take `O=C1CN=C(c2ccccc2)c2cc([N+](=O)[O-])ccc2N1` [Nitrazepam]: the “Enzyme activity (inhibition/activation)” value was “inhibition”.

The same series, now with this note: AKR1C1, known from the literature.
As for `COC1=C(OC)C(=O)c2ccccc2C1=O` [2,3-Dimethoxynaphthalene-1,4-Dione, 2,3-dimethoxynaphthalene-1,4-dione], the “Enzyme activity (inhibition/activation)” value was “activation”. On to `O=C(O)c1cc(I)cc(I)c1O` [3,5-Diiodosalicylic Acid], for which the “Enzyme activity (inhibition/activation)” value is “inhibition”. On to `O=c1c(O)c(-c2ccccc2)oc2cc(O)ccc12` [3,7-Dihydroxyflavone], for which the “Enzyme activity (inhibition/activation)” value is recorded as “inhibition”.

Consider `O=c1c(O)c(-c2ccccc2)oc2ccccc12` [3-Hydroxyflavone], for which the “Enzyme activity (inhibition/activation)” value is reported as “inhibition”. As to `O=C(O)c1cccc(Oc2ccccc2)c1` [3-Phenoxybenzoic Acid], the “Enzyme activity (inhibition/activation)” value is “inhibition”. On to `O=c1cc(-c2ccccc2)oc2cccc(O)c12` [5-Hydroxyflavone], for which the “Enzyme activity (inhibition/activation)” value was “inhibition”. `COc1cccc2oc(-c3ccccc3)cc(=O)c12` [5-Methoxyflavone]: the “Enzyme activity (inhibition/activation)” value is “inhibition”. `O=c1cc(-c2ccccc2)oc2cc(O)ccc12` [7-Hydroxyflavone]: the “Enzyme activity (inhibition/activation)” value was “inhibition”. As to `C[C@H](O)[C@H]1CC[C@H]2[C@@H]3C=CC4=CC(=O)CC[C@@]4(C)[C@@H]3CC[C@]12C` [20α-Hydroxydydrogesterone], the “Enzyme activity (inhibition/activation)” value is given as “inhibition”.

As to `CC(C)C1=CC2=CC[C@@H]3[C@](C)(CCC[C@@]3(C)C(=O)O)[C@H]2CC1` [Abietic Acid], the “Enzyme activity (inhibition/activation)” value is listed as “inhibition”.

As for `CC(=O)Oc1ccccc1C(=O)O` [Acetylsalicylic Acid], the “Enzyme activity (inhibition/activation)” value is “inhibition”. Turning to `O=c1cc(-c2ccc(O)cc2)oc2cc(O)cc(O)c12` [Apigenin], the “Enzyme activity (inhibition/activation)” value is given as “inhibition”. Regarding `COc1ccc(-c2coc3cc(O)cc(O)c3c2=O)cc1` [Biochanin A], the “Enzyme activity (inhibition/activation)” value is reported as “inhibition”.

With `O=c1cc(-c2ccccc2)oc2cc(O)cc(O)c12` [Chrysin, 5,7-Dihydroxyflavone], the “Enzyme activity (inhibition/activation)” value is given as “inhibition”. Consider `O=c1ccc2ccccc2o1` [Coumarin], for which the “Enzyme activity (inhibition/activation)” value was “inhibition”.

Regarding `O=c1oc2cc(O)ccc2c2oc3cc(O)ccc3c12` [Coumestrol], the “Enzyme activity (inhibition/activation)” value is “inhibition”. On to `O=C1CCCC1` [Cyclopentanone], for which the “Enzyme activity (inhibition/activation)” value is on record as “inhibition”. Consider `O=c1c(-c2ccc(O)cc2)coc2cc(O)ccc12` [Daidzein], for which the “Enzyme activity (inhibition/activation)” value is “inhibition”. Regarding `O=C(O)Cc1ccccc1Nc1c(Cl)cccc1Cl` [Diclofenac], the “Enzyme activity (inhibition/activation)” value is reported as “inhibition”.

As to `CC/C(=C(/CC)c1ccc(O)cc1)c1ccc(O)cc1` [Diethylstilbestrol], the “Enzyme activity (inhibition/activation)” value is listed as “inhibition”. In the case of `CC(=O)[C@H]1CC[C@H]2[C@@H]3C=CC4=CC(=O)CC[C@@]4(C)[C@@H]3CC[C@]12C` [Dydrogesterone], the “Enzyme activity (inhibition/activation)” value was “inhibition”.

As to `C[C@]12CC[C@H]3C(=CCc4cc(O)ccc43)[C@@H]1CCC2=O` [Equilin], the “Enzyme activity (inhibition/activation)” value was “inhibition”. In the case of `Clc1ccc2c(c1)C(c1ccccc1)=NCc1nncn1-2` [Estazolam], the “Enzyme activity (inhibition/activation)” value is “inhibition”. In the case of `C=C(CC)C(=O)c1ccc(OCC(=O)O)c(Cl)c1Cl` [Ethacrynic Acid], the “Enzyme activity (inhibition/activation)” value is “activation”. For the compound `CCc1cccc2c3c([nH]c12)C(CC)(CC(=O)O)OCC3` (centres unmarked) [Etodolac], the “Enzyme activity (inhibition/activation)” value is recorded as “inhibition”. Turning to `O=C1CC(c2ccccc2)Oc2ccccc21` (centres unmarked) [Flavanone], the “Enzyme activity (inhibition/activation)” value is on record as “inhibition”. For the compound `O=c1cc(-c2ccccc2)oc2ccccc12` [Flavone], the “Enzyme activity (inhibition/activation)” value is “inhibition”. With `O=c1c(-c2ccc(O)cc2)coc2cc(O)cc(O)c12` [Genistein], the “Enzyme activity (inhibition/activation)” value is recorded as “inhibition”.

As for `CC1(C)[C@@H](O)CC[C@]2(C)[C@H]3C(=O)C=C4[C@@H]5C[C@@](C)(C(=O)O)CC[C@]5(C)CC[C@@]4(C)[C@]3(C)CC[C@@H]12` [Glycyrrhetinic Acid], the “Enzyme activity (inhibition/activation)” value is “inhibition”. As for `OO` [Hydrogen peroxide], the “Enzyme activity (inhibition/activation)” value is on record as “activation”. On to `CC(C)Cc1ccc(C(C)C(=O)O)cc1` (centres unmarked) [Ibuprofen], for which the “Enzyme activity (inhibition/activation)” value was “inhibition”.

As for `COc1ccc2c(c1)c(CC(=O)O)c(C)n2C(=O)c1ccc(Cl)cc1` [Indomethacin], the “Enzyme activity (inhibition/activation)” value was “inhibition”. As for `O=c1c(O)c(-c2ccc(O)cc2)oc2cc(O)cc(O)c12` [Kaempferol], the “Enzyme activity (inhibition/activation)” value is reported as “inhibition”. With `CC(C(=O)O)c1cccc(C(=O)c2ccccc2)c1` (centres unmarked) [Ketoprofen], the “Enzyme activity (inhibition/activation)” value was “inhibition”. As for `O=C1C[C@@H](c2ccc(O[C@@H]3O[C@H](CO)[C@@H](O)[C@H](O)[C@H]3O)cc2)Oc2cc(O)ccc21` [Liquiritin], the “Enzyme activity (inhibition/activation)” value is listed as “inhibition”.

Take `O=c1cc(-c2ccc(O)c(O)c2)oc2cc(O)cc(O)c12` [Luteolin]: the “Enzyme activity (inhibition/activation)” value is reported as “inhibition”. With `Cc1ccc(Cl)c(Nc2ccccc2C(=O)O)c1Cl` [Meclofenamic Acid], the “Enzyme activity (inhibition/activation)” value is on record as “inhibition”. As to `CN1CCN=C(c2ccccc2)c2cc(Cl)ccc21` [Medazepam], the “Enzyme activity (inhibition/activation)” value is “inhibition”. For `CC(=O)O[C@]1(C(C)=O)CC[C@H]2[C@@H]3C[C@H](C)C4=CC(=O)CC[C@]4(C)[C@H]3CC[C@@]21C` [Medroxyprogesterone Acetate], the “Enzyme activity (inhibition/activation)” value is given as “inhibition”. Take `CC/C=C\CC1C(=O)CCC1CC(=O)OC` (centres unmarked) [Methyl Jasmonate]: the “Enzyme activity (inhibition/activation)” value is on record as “inhibition”. Take `COc1ccc2cc([C@H](C)C(=O)O)ccc2c1` [Naproxen]: the “Enzyme activity (inhibition/activation)” value is “inhibition”.

In the case of `O=C1C[C@@H](c2ccc(O)cc2)Oc2cc(O)cc(O)c21` [Naringenin], the “Enzyme activity (inhibition/activation)” value is “inhibition”.

As to `C#C[C@]1(O)CC[C@H]2[C@@H]3CCC4=CC(=O)CC[C@@H]4[C@H]3CC[C@@]21C` [Norethindrone], the “Enzyme activity (inhibition/activation)” value is “inhibition”. Regarding `CC1CN2CC(=O)Nc3ccc(Cl)cc3C2(c2ccccc2)O1` (centres unmarked) [Oxazolam], the “Enzyme activity (inhibition/activation)” value was “inhibition”. `CC(=O)Nc1ccc(O)cc1` [Paracetamol]: the “Enzyme activity (inhibition/activation)” value is listed as “inhibition”. `O=c1c(O)c(-c2ccc(O)c(O)c2)oc2cc(O)cc(O)c12` [Quercetin]: the “Enzyme activity (inhibition/activation)” value was “inhibition”.

As for `Oc1ccc(C=Cc2cc(O)cc(O)c2)cc1` [Resveratrol], the “Enzyme activity (inhibition/activation)” value was “inhibition”. As to `CC1=C(CC(=O)O)c2cc(F)ccc2/C1=C\c1ccc([S+](C)[O-])cc1` (centres unmarked) [Sulindac], the “Enzyme activity (inhibition/activation)” value is reported as “inhibition”. As to `CC(C)(C)c1cc(O)ccc1O` [T-Butylhydroquinone], the “Enzyme activity (inhibition/activation)” value is listed as “activation”.

On to `CC/C(=C(\c1ccccc1)c1ccc(OCCN(C)C)cc1)c1ccccc1` [Tamoxifen], for which the “Enzyme activity (inhibition/activation)” value is “inhibition”. `COc1c(O)cc(O)c2c(=O)cc(-c3ccccc3)oc12` [Wagonin]: the “Enzyme activity (inhibition/activation)” value was “inhibition”. For the compound `C[C@H]1CCCC(=O)CCC/C=C/c2cc(O)cc(O)c2C(=O)O1` [Zearalenone], the “Enzyme activity (inhibition/activation)” value is given as “inhibition”.

As for `Cc1cc(CC(=O)O)n(C)c1C(=O)c1ccc(Cl)cc1` [Zomepirac], the “Enzyme activity (inhibition/activation)” value was “inhibition”.

Still in this series, the particulars now being: literature statements in the text.
As for `O=C1C[C@@H](c2ccc(O[C@@H]3O[C@H](CO)[C@@H](O)[C@H](O)[C@H]3O)cc2)Oc2cc(O)ccc21` [Liquiritin], the “kind of AKR1C1 inhibition” value was “selective and potent AKR1C1 inhibitor”. Turning to `CN1CCN=C(c2ccccc2)c2cc(Cl)ccc21` [Medazepam], the “kind of AKR1C1 inhibition” value was “non-competitive inhibitors”.
